Source: patent US5916920A, “3-substituted Bicyclo[3.1.0]hexane-6-carboxylic acids” (Eli Lilly and Company, priority 1996, dated 1999)

Experiments:
[1] = mouse elevated plus maze model; assay type: in vivo
[2] = mouse conditioned active avoidance response model; assay type: in vivo
From the text: (Pfeiffer & Jenney, Ann. N.Y. Acad. Sci., 66:[…], 1957; Maffii, J. Pharm. Pharmacol., 11: 129-139, 1959; Cook & Weidley, Ann; N.Y. Acad. Sci., 66: […], 1957; Janke, Handbook of Experimental Pharmacology, Vol. 55/I, New York: Plenum Press, 1978).

[3] = tested on: metabotropic glutamate receptors; test: selective displacement of 1S,3R-ACPD-sensitive [^3 H]glutamate binding to rat brain cell membranes; conditions: crude membranes of rat forebrain
Experimental: The binding of [^3 H]glutamate was conducted with crude membranes of rat forebrain as described by Schoepp and True. Schoepp and True, Neuroscience Lett., 145, 100-104 (1992) and Wright et al., J. Neurochemisty 63: 938-945 (1994).

Cc1cccc(C[C@@H]2C[C@H]3[C@H](C(=O)O)[C@H]3[C@]2(N)C(=O)O)c1 (relative stereo) [Example 4, 1SR,2SR,3SR,5RS,6SR-Amino-3-((3-methyl)benzyl)bicyclo[3.1.0]hexane-2,6-dicarboxylic acid]
anxiolytic effect in the mouse elevated plus maze model [1]: anxiolytic effect

N[C@@]1(C(=O)O)[C@H](Cc2ccc(F)c(F)c2F)C[C@H]2[C@H](C(=O)O)[C@H]21 (relative stereo) [Example 25, 1SR,2SR,3SR,5RS,6SR-2-Amino-3-((2,3,4-trifluoro)benzyl)bicyclo[3.1.0]hexane-2,6-dicarboxylic acid]
neuroleptic properties in the mouse conditioned active avoidance response model [2]: neuroleptic properties

Mixture of 1SR,2SR,3RS,5RS,6SR-2-amino-3-(3-phenylpropyl)bicyclo[3.1.0]-hexane-2,6-dicarboxylic acid and 1SR, 2RS, 3RS, 5RS, 6SR-2-amino-3-(3-phenylpropyl)bicyclo[3.1.0]hexane-2,6-dicarboxylic acid [Example 1]
IC50 [3]: 320 nM
